Measured values published in PubChem BioAssay (NCI).
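48-hour exposure; five concentrations; linearly interpolated endpoints. GI50 marks 50% less growth. TGI: total growth inhibition.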

How the values were obtained:
Test in all cases: inhibition of tumour cell growth, NCI panel, 48 h
[1] = system: MCF7 breast
[2] = system: OVCAR-3 ovarian
[3] = system: SF-539 CNS
[4] = system: NCI-H23 lung
[5] = system: T-47D breast
[6] = system: ACHN renal
[7] = system: HCT-15 colon
[8] = system: SK-MEL-5 melanoma
[9] = system: HCC-2998 colon
[10] = system: SK-MEL-28 melanoma

| Structure (SMILES) | GI50 [1] [µM] | TGI [1] [µM] | GI50 [2] [µM] | TGI [2] [µM] | GI50 [3] [µM] | TGI [3] [µM] | GI50 [4] [µM] | TGI [4] [µM] | GI50 [5] [µM] | TGI [5] [µM] | GI50 [6] [µM] | TGI [6] [µM] | GI50 [7] [µM] | TGI [7] [µM] | GI50 [8] [µM] | TGI [8] [µM] | GI50 [9] [µM] | TGI [9] [µM] | GI50 [10] [µM] | TGI [10] [µM] |
| --- | --- | --- | --- | --- | --- | --- | --- | --- | --- | --- | --- | --- | --- | --- | --- | --- | --- | --- | --- | --- |
| O=C1c2cccc(Oc3ccccc3)c2C(=O)c2cccc(Oc3ccccc3)c21 | > 100 | > 100 | > 100 | > 100 | 41.5 | > 100 | > 100 | > 100 | > 100 | > 100 | > 100 | > 100 | > 100 | > 100 | > 100 | > 100 | > 100 | > 100 | > 100 | > 100 |
| CCN(CC)CCCNc1ccc(C)c2sc3ccccc3c(=O)c12 | 0.277 | 1.05 | 3.42 | 16.2 | 1.3 | 2.81 | 1.75 | 5.04 | 0.492 | 2.55 | 0.869 | 2.31 | 0.248 | 0.651 | 0.187 | 0.343 | 0.488 | 1.77 | 0.201 | 0.435 |
| O=C1C=C[C@H](O)[C@@]2(CO)O[C@@H]12 | 5.38 | 23.8 | 3.31 | 10.7 | 11.6 | 25.6 | 15.8 | 31.3 | 8.16 | 26.3 | 9.42 | 22 | 14.3 | 30.5 | 16.1 | 29.7 | 17.2 | 31 | 12.8 | 25.7 |
| COc1ccc2c(N)ncc(C#Cc3cc(C(=O)Nc4ccc(CN5CCN(C)CC5)c(C(F)(F)F)c4)cnc3C)c2c1 | 0.745 | 2.63 | 1.31 | 5.29 | 0.597 | 1.12 | 1.89 | 8.79 | 13.5 | 25.4 | 0.436 | 1.15 | 0.386 | 0.956 | 1.86 | 5.32 | 1.42 | 5.36 | 0.66 | 1.81 |
| Cc1ccc2c(-c3ccnc(Nc4ccc5c(c4)OCCO5)n3)c(-c3ccc(C(F)(F)F)cc3)nn2n1 | 5.66 | > 25 | > 23.6 | > 25 | > 18.7 | > 25 | 14.3 | > 25 | 1.78 | > 25 | 16.5 | > 25 | 8.69 | > 25 | 2.04 | 7.42 | 12.3 | > 25 | > 25 | > 25 |
| N#CC1(c2ccc(NC(=O)c3cccnc3NCc3ccncc3)cc2)CCCC1 | 10.6 | 49.5 | 14.8 | 70 | 3.37 | 29.9 | 12.8 | 41.8 | 4.15 | 49.7 | 12.4 | > 70.9 | 8.12 | 39.3 | 4.96 | 18 | 25.8 | > 100 | 17.3 | > 89.8 |
| Cc1cccc(NC(=O)c2sc3nc4c(cc3c2N)C(=O)CCC4)c1 | 0.157 | > 100 | 0.257 | 1.18 | 0.199 | 0.616 | 0.67 | > 60.4 | 0.397 | > 100 | 1.48 | > 58.5 | 0.156 | > 100 | 0.115 | > 57.4 | 0.54 | > 100 | 1.53 | > 62.3 |
| CC(=O)O[C@H]1C(=O)[C@@]2(C)C([C@H](OC(=O)c3ccccc3)[C@]3(O)C[C@H](OC(=O)[C@H](O)[C@@H](NC(=O)c4ccccc4)c4ccccc4)C(C)=C1C3(C)C)[C@]1(OC(C)=O)CO[C@@H]1C[C@@H]2O (some centres undefined) | < 0.005 | > 50 | 0.0056 | 0.0589 | 0.00872 | > 50 | 0.0125 | > 50 | 0.00973 | > 50 | 0.945 | > 50 | 0.382 | > 50 | 0.00785 | > 50 | 0.00868 |  | 0.0139 | > 50 |
| c1ccc(-c2[nH]ncc2-c2ccnc(-c3ccc(OCCn4ccnc4)cc3)c2)nc1 | > 25 | > 25 | 22.4 | > 25 | > 25 | > 25 | > 25 | > 25 | 5.68 | > 25 | > 25 | > 25 | 22 | > 25 | 8.1 | > 25 | > 25 | > 25 | > 25 | > 25 |
| Cn1nccc1Nc1nccc(-c2ccn([C@H](CO)c3ccc(Cl)c(F)c3)c(=O)c2)n1 | 27.4 | > 100 | 37.5 | > 100 | 2.24 | 6.91 | 4.47 | > 100 | 26.5 | > 100 | 25 | > 100 | 21.3 | > 100 | 12.5 | 43.3 | 0.588 | 23.7 | 0.104 | > 100 |
| O=C(Nc1cccc(-n2cc(-c3ccncc3)c(-c3cc(O)cc(Cl)c3)n2)c1)c1ccc(N2CCOCC2)c(C(F)(F)F)c1 | 4.16 | > 100 | 7.2 | > 100 | 1.44 | 4.47 | 3.65 | 38.8 | 3.81 | > 100 | 1.84 | 29.3 | 0.559 | 11.3 | 2.33 | 8.49 | 1.82 | 7.95 | 0.759 | 3.27 |
| Nc1ncnc2c1N=C(c1ccc3c(c1)OCO3)CC(c1ccc(Cl)cc1)N2 (centres undefined) | 3.61 | 45.5 | 3.71 | 18.6 | 26.2 | > 100 | 21.4 | > 100 | 20.9 | > 100 | 8.25 | > 100 | 3.05 | > 100 | 85.1 | > 100 | 5.88 | 35 | 30.4 | > 100 |
| Nc1ncc(Cc2ccc3c(c2)OCO3)c(N)n1 |  | > 100 |  | > 100 |  | > 100 |  | > 100 |  | > 100 |  | > 100 |  | > 100 |  | > 100 |  | > 100 |  | > 100 |
| CNCc1cccc2c1OCCOCCOCCN(C)S(=O)(=O)c1ccc(cc1)-c1cnc(N)c(n1)C(=O)N2 | 0.0566 | 17.9 | 1.59 | 9.79 | 0.534 | 1.98 | 2.47 | 27.9 | 2.25 | 6.15 | 0.468 | 2.21 | 1.77 | 7.78 | 1.35 | 2.91 | 15.5 | 30.3 | 1.74 | 3.56 |
| Cn1c([N+](=O)[O-])cnc1C=C1C(=O)c2ccccc2C1=O | 3.44 | 16.2 | 4.67 | 14.8 | 2.6 | 7.51 | 4.9 | 20.5 | 11.4 | 44.6 | 3.75 | 13.7 | 2.13 | 6.77 | 8.67 | 21.9 | 13.5 | 32.2 | 2.56 | 7.4 |
| COc1cc2c(cc1Nc1nc(N3CCc4ccccc43)c3cc[nH]c3n1)N(C(=O)CN(C)C)CC2 | 0.48 | 2.09 | 2.08 | 4.98 | 4.88 | 10.8 | 4.98 | 14.6 | 7.91 | 16.7 | 4.4 | 8.82 | 1.25 | 2.81 | 4.26 | 11 | 3.13 | 7.33 | 1.4 | 3.38 |
| O=C(/C=C/C12c3ccccc3C(c3ccccc31)C1C(=O)NC(=O)C12)c1ccccn1 (centres undefined) | 0.562 | 2.43 | 1.45 | 2.88 | 2.04 | 4.65 | 1.89 | 4.07 | 1.73 | 5.26 | 2.88 | 10.3 | 1.17 | 3.35 | 1.7 | 3.2 | 1.88 | 3.51 | 2.03 | 3.86 |
| CCN(CC)Cc1cc(Nc2nc(NC3CCC(N(C)C)CC3)c3ccccc3n2)ccc1OC (centres undefined) | 3.83 | 14.6 | 11.6 | 24.7 | 3.3 | 13.3 | 6.9 | 21.9 | 5.4 | 18.9 | 11 | 24.8 | 15.2 | 35.3 | 1.54 | 2.87 | 10.4 | 22.2 | 2.41 | 5.17 |
